The text below walks through data of paper PMC5066224, “A Novel Resveratrol Based Tubulin Inhibitor Induces Mitotic Arrest and Activates Apoptosis in Cancer Cells” (Scientific Reports, 2016).

Each structure is given as a SMILES string.

A short description of the data set: Toxicity evaluation in normal mice (body weight, haematology, liver and kidney function). Conditions: 9 doses. The data set is classed as in vivo, BALB/c mice. The procedure: A total number of 10 BALB/c mice were used for the study, of which 5 animals served as normal control while, remaining 5 were treated with SS28 (15 mg/kg). Body weight of each animal was monitored throughout the experiment and average body weight was calculated on 21st day of treatment. In order to evaluate the effect of SS28 on physiological functions, blood was collected (21st day) and analysed as described earlier. The blood […] was analyzed using Neubauer’s chamber, and mean values of total red blood cells (RBCs) and white blood cells (WBCs) were determined. Serum was separated and kidney and liver function tests were performed for each animal, to determine alkaline phosphatase (ALP), […] (ALT), creatinine and urea levels as described earlier. Values are presented as mean ± SEM for both the controls and SS28 administered mice.

[1] abbreviates: normal BALB/c mice, 15 mg/kg, 21st day, mean ± SEM.

For the molecule `COc1cc(/C=C/c2ccc(C)cc2)cc(OC)c1OC` [SS28, (E)-1,2,3-trimethoxy-5-(4-methylstyryl)benzene], under “normal BALB/c mice, 15 mg/kg oral”, the body weight entry is recorded as “no significant difference”. The “number of RBCs and WBCs versus control” value (normal BALB/c mice, 15 mg/kg, 21st day) was “no significant difference”. In addition, under setting [1], the RBC is 6.43 ± 1.32 10^6 cells/mm^3 and the WBC is given as 3.5 ± 0.99 10^3 cells/mm^3. Also, under “serum, 15 mg/kg, 21st day”, the “ALP level versus control” value is given as “slightly higher”; the “level of ALT versus control” value is “no significant difference”; the “levels of creatinine and urea in the serum versus control” value is listed as “no significant difference”.
